Experimental data reported in patent US4686206A, “Composition for activating function of phagocytes” (Sunstar Kabushiki Kaisha, priority 1984, dated 1987).

Legend:
neutrophils [1] = assay: Random migration of human neutrophils (Boyden chamber, PBS in lower part); format: cell-based; conditions: Neutrophil, 1 μg/ml, 15 min preincubation, 1 to 3 hours at 37° C., relative to control = 100%, read-out: random motoricity
Description: (§1) Neutrophils were separated from human peripheral blood and the effect of various tocopherylglycosides on random migration and chemotaxis of the neutrophils were measured by using Boyden chambers.
(§2) Tocopherol or a tocopheryl glycoside dissolved in 1% dimethylsulfoxide was added to a suspension containing 2.5×10^6 cells/ml of neutrophils so that a concentration of tocopherol or the tocopheryl glycoside was 1 μg/ml. After 15 minutes incubation at 37° C., the mixture was added to the upper part of the chamber. To the lower part of the chamber was added PBS in case of measuring random migration, or added 2×10^-8 M of N-formyl-methionyl-leucyl-phenylalanine in case of measuring chemotaxis. Then, the chamber was incubated at 37° C. for 1 to 3 hours. After incubation, the filter was fixed and stained with hematoxylin, and then the number of neutrophils migrated to the bottom of the filter was counted by using a microscope. As a control, the same procedure was repeated except that tocopherol or the tocopheryl glycoside was not added. In Table 1, the relative percentage of the counting obtained by addition of tocopherol or the tocopheryl glycoside is shown by taking the counting of the control as 100%.

neutrophils [2] = assay: Chemotaxis of human neutrophils (Boyden chamber, N-formyl-methionyl-leucyl-phenylalanine in lower part); format: cell-based; conditions: Neutrophil, 1 μg/ml, 2×10^-8 M N-formyl-methionyl-leucyl-phenylalanine, 1 to 3 hours at 37° C., relative to control = 100%
Description: as §1, §2

neutrophils [3] = assay: Phagocytosis of neutrophils (opsonized FITC-labeled Staphylococcus aureus IFO 13276); format: cell-based; conditions: Homo sapiens, Neutrophil, 0.25 h; 1 μg/ml; 15 min at 37° C.; relative to control = 100%
Description: Neutrophils were separated from human peripheral blood and a suspension containing 2.5×10^6 cells/ml of neutrophils was prepared. Tocopherol or a different tocopheryl glycoside was added to 900 μl of this suspension so that the concentration of tocopherol or the tocopheryl glycoside was 1 μg/ml and the mixture was incubated at 37° C. for 15 minutes.
The suspension (100 μl) containing 1×10^9 cells/ml of opsonized Staphylococcus aureus (IFO 13276) labeled with fluorescein isothiocyanate was added to the mixture. The resulting mixture was incubated at 37° C. for 15 minutes. Then, the number of cells incorporated into 100 cells of neutrophils was counted by using a fluorescence microscope. As a control, the same procedure was repeated except that tocopherol or the tocopheryl glycoside was not added. In Table 2, the relative percentage of the counting obtained by addition of tocopherol or the tocopheryl glycoside is shown by taking the counting of the control as 100%.

[4] = system: Pseudomonas aeruginosa (P-1 strain, Ikaken); assay: In vivo test to Pseudomonas aeruginosa (survival of infected mice); parameters: species or system ICR mice; conditions: 1 mg/kg i.v. once a day for three days; 2.5×10^7 cells P. aeruginosa i.p.; after 24 hours; control 0%
Description: An aqueous injectable solution of dl-α-tocopheryl glucoside or dl-α-tocopheryl mannoside (see Example 3) was intravenously injected to ICR mice (body weight: 20 to 25 g, 10 mice per a group (5 female mice and 5 male mice)) once a day (dose: 1 mg/kg) for three days continuously. After the final injection, 2.5×10^7 cells of Pseudomonas aeruginosa (P-1 strain, Ikaken) were injected i.p. and the percentage of survival animuls was determined after 24 hours. As a control, the same procedure was repeated except that an equal amount of distilled water was used instead of the tocopheryl glycoside and the percentage of survival animals was determined. As the result, the percentage of survival of the control group was 0%, whereas that of the group injected with dl-α-tocopherylglucoside or dl-α-tocopherylmannoside was 20%, respectively.

[5] = Acute toxicity (LD50) in rat; conditions: in vivo

Cc1c(C)c2c(c(C)c1O)CCC(C)(CCCC(C)CCCC(C)CCCC(C)C)O2 (racemic) [dl-α-Tocopherol, reference compound]
activity at 1 µg/mL (neutrophils [1]): 82 ± 12% | activity at 1 µg/mL (neutrophils [2]): 94 ± 5% | activity at 1 µg/mL (neutrophils [3]): 164 ± 16%

Cc1c(C)c2c(c(C)c1O[C@@H]1O[C@H](CO)[C@@H](O)[C@H](O)[C@@H]1O)CCC(C)(CCCC(C)CCCC(C)CCCC(C)C)O2 (mixture of isomers) [dl-α-Tocopherylmannoside]
activity at 1 µg/mL (neutrophils [1]): 71 ± 16% | activity at 1 µg/mL (neutrophils [2]): 168 ± 3% | activity at 1 µg/mL (neutrophils [3]): 219 ± 21% | percentage of survival [4]: 20% | LD50 ([5]; ip): ≥ 500 mg/kg | LD50 ([5]; po): ≥ 5000 mg/kg

Cc1c(C)c2c(c(C)c1OC1O[C@H](CO)[C@H](O)[C@H](O)[C@H]1O)CCC(C)(CCCC(C)CCCC(C)CCCC(C)C)O2 (mixture of isomers) [dl-α-Tocopherylgalactoside, reference compound]
activity at 1 µg/mL (neutrophils [1]): 64 ± 8% | activity at 1 µg/mL (neutrophils [2]): 85 ± 3% | activity at 1 µg/mL (neutrophils [3]): 112 ± 9%

Cc1c(C)c2c(c(C)c1OC1O[C@H](CO)[C@@H](O)[C@H](O)[C@H]1O)CCC(C)(CCCC(C)CCCC(C)CCCC(C)C)O2 (mixture of isomers) [dl-α-Tocopherylglucoside, dl-α-tocopherylglucoside]
activity at 1 µg/mL (neutrophils [1]): 98 ± 34% | activity at 1 µg/mL (neutrophils [2]): 140 ± 6% | activity at 1 µg/mL (neutrophils [3]): 168 ± 31% | percentage of survival [4]: 20% | LD50 ([5]; ip): ≥ 500 mg/kg | LD50 ([5]; po): ≥ 5000 mg/kg
